Where two headings read alike, the source gives them in different places.
Legend:
[1] = amide bond
MDR1 = assay: MDCK-MDR1 permeability assay; format: in vitro ADME; conditions: dog; for Papp A→B at 2 h, 3 μM: MDCK-MDR1, MDCK-MDR1 cells, apical to basolateral, 3 μM test compound, 2 hours at 37 degrees C; for efflux ratio at 2 h, 3 μM: MDCK-MDR1, Papp (basolateral to apical) divided by Papp (apical to basolateral), MDCK-MDR1 cells, read-out: Efflux ratio (ER)
Protocol: The bidirectional permeability (Apical to Basal and Basal to Apical directions) of test compounds in MDCK-MIDR1 cells were evaluated using MDCK-MIDR1 cells seeded in Solvo PreadyPort™ MIDCK 96-well plate. Once the plate was received from ReadyCell (Barcelona, Spain), it was treated as per PreadyPort™ user's manual.
For the Apical to Basolateral (A→B) permeability, 80 μL of test compound (3 μM) co-dosed with LY (Lucifer Yellow) (100 μM) in HBSS (Hank's Balanced Salt Solution) assay buffer was added to the donor side (A) while 250 μL of HBSS buffer was added to the receiver side (B). For the Basolateral to Apical (B→A) permeability, 255 μL of test compound (3 μM) in HBSS assay buffer was added to the donor side (B) while 75 μL of HBSS buffer containing LY (100 μM) was added to the receiver side (A).
The plate was placed in an incubator set at 37 degrees C. After 10 minutes of pre-warming, 5 μL aliquot was taken from donor compartment and set aside as the dosing solution. The MDCK-MDR1 incubation plate was placed back into the incubator for 2 hours of incubation at 37 degrees C. After 2 hours of incubation, 25 μL and 5 μL aliquots were removed from the receiver and donor sides, respectively. To the 5 μL aliquots taken from the donor sides (before and after a 2-hour incubation) were diluted with 20 μL of the HBSS buffer. All samples were mixed with 150 μL with acetonitrile containing internal standard (IS) and 200 μL water, and analyzed by LC-MS/MS.
The apparent permeability (Papp) was calculated using the following formula: Papp=dQ/dt×1/A×C0 where: • dQ/dt: amount of translocated material over incubation time (nmol/s) • A: area of insert (0.14 cm^2 for PreadyPort™ MDR1-96) • C0: initial concentration of product applied in apical (A→B) or basal (B→A) compartment (nmol/mL)
The efflux ratio (ER) was measured by dividing the Papp (basolateral to apical direction) by Papp (apical to basolateral direction). It is a general measure of the involvement of active processes. An ER>2 is considered positive for active transport.
The data reported in Table 3 were obtained according to the MDCK-MIDR1 permeability assay described above.

[2] = Hepatocytes stability assay (human hepatocytes); format: in vitro ADME; conditions: both sexes, cryopreserved hepatocytes, 1 μM test compound, 1×10^6 cell/mL, 37 degrees C, read-out: CLint (μL/min/million cells)
Protocol: (§1) In vitro metabolic stability was assessed using cryopreserved hepatocytes from male Sprague Dawley rats and a pool of 50 mixed gender humans (BioIVT, Baltimore, MD). The incubation mixtures were prepared by mixing 250 μL of pre-warmed KHB (Krebs-Henseleit buffer) containing 2×10^6 cell/mL of hepatocytes with 250 μL of pre-warmed KHB buffer containing 2 μM of test compounds in a 48-well plate, giving a final concentration of 1 μM test compound (0.1% DMSO) and 1×10^6 cell/mL of hepatocytes. The reaction mixture was incubated at 37 degrees C. A 50 μL aliquot of incubation mixture was taken at time points (0, 15, 30, 60, 120 and 240 minutes) and transferred into a 96-well plate containing 300 μL ice-cold acetonitrile (containing 30 ng/mL of labetalol and 10 ng/mL of Naltrexone-d3 as internal standards) and immediately placed in ice to terminate the reaction. Samples were centrifuged, and supernatants were transferred into 96-well plates for liquid chromatography with tandem mass spectrometry (LC-MS/MS) analysis to monitor the depletion of the test compound.
(§2) Data was calculated as percent remaining by assuming zero-minute time point peak area ratio (analyte/IS) as 100% and dividing remaining time point peak area ratios by zero-minute time point peak area ratio. Data were fitted to a first-order decay model to determine half-life. From a plot of log (ln) peak area against time, the slope of the line was determined. Subsequently, half-life (T1/2) and intrinsic clearance (CLint) were calculated using the equations below: Elimination rate constant (k)=(−slope) Half-life (T1/2)min=0.693/k Intrinsic Clearance (CLint) (mL/min/million cells)=(V×0.693)/T1/2 V=incubation volume mL/number of cells The in vitro T1/2 was converted to in vitro intrinsic clearance (CLint,hep) in units of mL/min/kg using the formula shown below:
(§3) [formula] The in vitro intrinsic clearance (CLint,hep) was scaled to in vivo hepatic clearance (CL,hep) using the following equation which was adapted from a well-stirred model.
(§4) [formula] where Q is the liver blood flow and fu is the fraction unbound (assumed to be unity in this case). All parameters used in the calculation are shown below (Table 4).
(§5) The extraction ratio (ER) was calculated by dividing the hepatic clearance of a compound to the liver blood flow. The data reported in Table 5 were obtained according to the human hepatocytes stability assay described above.

human hepatocytes = assay: Hepatocytes stability assay (human hepatocytes); format: in vitro ADME; conditions: scaled hepatic clearance divided by liver blood flow, fu assumed unity
Protocol: as §1, §2, §3, §4, §5

Sprague-Dawley rats = assay: Assessment of wake promotion in Sprague-Dawley rats (EEG/EMG); format: in vivo; conditions: Rattus norvegicus; PO, 3 mpk, male Sprague-Dawley rats, dosed at ZT5, 6-hour post-dose period; read-out: Mean cortical activation time (% vehicle treatment)
Protocol: Wake promotion was assessed using electroencephalography (EEG) and electromyography (EMG) in adult male Sprague-Dawley rats (350-600 g). All rats (Charles River Laboratories, Raleigh, NC, USA) were intraperitoneally implanted with telemetry devices (F50-EEE, Data Sciences International Inc., M/N, USA) under isoflurane anesthesia. For EEG, stainless steel screws were implanted over frontal cortex and parietal cortex, and reference screws were placed over cerebellum. Additionally, an electrode was placed in neck muscle for EMG. Rats were given carprofen post-surgery and underwent a 7 to 10-day recovery period. Rats habituated to the experimental room for 7 days and were maintained on a 12-hour light-dark cycle.
EEG and EMG data were recorded using the DSI telemetry system and Ponemah software (Data Sciences International Inc., MN, USA). Sleep-wake stages were scored both manually and with Somnivore, a supervised machine learning software platform, in 10 second epocs. Records were visually inspected as needed post-processing.
All test compounds were dissolved in 5% DMSO and suspended in 95% saline with 0.5% methylcellulose and 0.5% tween. […] Unless otherwise indicated, all compounds were dosed orally. Recordings for each rat were initiated immediately after dosing and lasted for 6 hours post-dose.
Two key endpoints include wakefulness time and cortical activation time. Wakefulness time is derived from the sleep-wake stage analysis. Cortical activation time is based on the duration in which frontal gamma oscillatory activity (30-100 Hz), a key feature of wakefulness, was elevated relative to a pre-treatment baseline. Mean cortical activation time was computed relative to vehicle treatment for the 6-hour post-dose period.

[3] = molecular target: T1, human orexin-2 receptor (OX2R) (Homo sapiens, UniProt O43614); assay: Human OX2R IP1 assay; format: cell-based; conditions: T-Rex CHO cells stably overexpressing human OX2R, IP1 accumulation, 1 hr at 37 degrees C; mean EC50; ∧ = racemic mixture
T1 construct: expressed in transfected cells
T1 sequence (O43614 1-444): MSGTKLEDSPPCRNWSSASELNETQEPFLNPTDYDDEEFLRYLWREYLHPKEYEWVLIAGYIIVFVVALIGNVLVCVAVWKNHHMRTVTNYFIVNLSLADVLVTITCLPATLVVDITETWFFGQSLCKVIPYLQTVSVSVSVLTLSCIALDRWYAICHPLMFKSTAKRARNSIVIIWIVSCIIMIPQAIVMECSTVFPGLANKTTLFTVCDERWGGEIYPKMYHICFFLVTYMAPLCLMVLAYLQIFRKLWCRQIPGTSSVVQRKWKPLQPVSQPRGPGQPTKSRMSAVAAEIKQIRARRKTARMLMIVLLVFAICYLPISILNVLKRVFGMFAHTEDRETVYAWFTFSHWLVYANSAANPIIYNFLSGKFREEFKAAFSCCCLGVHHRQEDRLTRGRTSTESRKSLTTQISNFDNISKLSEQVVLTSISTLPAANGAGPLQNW
Outline: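 Doxycycline-induced T-Rex CHO cells stably expressing human OX2R treated with compound 1 hr at 37 °C in LiCl-containing buffer, pH 7.4. IP1 accumulation quantified by HTRF competitive immunoassay; EC50 reported as mean ± S.E.M.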

SMILES | Papp A→B at 2 h, 3 μM (MDR1) | efflux ratio at 2 h, 3 μM (MDR1) | hepatocyte CLint at 1 μM [2] | Extraction Ratio (ER) (human hepatocytes) | response vs control in vivo at 3 mg/kg (Sprague-Dawley rats) | other results
CC(C)(C)OC(=O)N([C@H]1CCN2C(=O)COc3ccccc3C3CCC(CC3)OC[C@@H]12)S(C)(=O)=O |  |  |  |  |  | ring closure, isolated yield ([1]; from CC(C)(C)OC(=O)N([C@H]1CCN[C@H]1COC1CCC(c2ccccc2OCC(=O)O)CC1)S(C)(=O)=O, 13-membered ring, HATU/DIEA, MeCN, 2.4 mM, 2.0 h): 31%
CC(C)(C)OC(=O)N([C@H]1CCN2C(=O)COc3ncccc3C3CCC(CC3)OC[C@@H]12)S(C)(=O)=O |  |  |  |  |  | ring closure, isolated yield ([1]; from CC(C)(C)OC(=O)N([C@H]1CCN[C@H]1COC1CCC(c2cccnc2OCC(=O)O)CC1)S(C)(=O)=O, 13-membered ring, HATU/DIEA, MeCN, 9.5 mM, 2.0 h): 41.4%
CC(C)(C)OC(=O)NC1CCCN2C(=O)COc3cnccc3C3CCC(CC3)OCC12 (stereo not drawn) |  |  |  |  |  | ring closure, isolated yield ([1]; from CC(C)(C)OC(=O)NC1CCCNC1COC1CCC(c2ccncc2OCC(=O)O)CC1, 13-membered ring, HATU/DIEA, MeCN, 0.22 mM, 2.0 h): 23.4%
CC(C)(C)OC(=O)N[C@H]1CCCN2C(=O)CCCOc3ccccc3C3CCC(CC3)OC[C@@H]12 |  |  |  |  |  | ring closure, isolated yield ([1]; from CC(C)(C)OC(=O)N[C@H]1CCCN[C@H]1COC1CCC(c2ccccc2OCCCC(=O)O)CC1, 15-membered ring, HATU/DIEA, MeCN/DMF 8:1, 18.1 mM, 2.0 h): 77.9%
CC(C)(C)OC(=O)N[C@H]1CCCN2C(=O)COc3cccc(F)c3C3=CCC(CC3)OC[C@@H]12 (stereo partly drawn) |  |  |  |  |  | ring closure, isolated yield ([1]; from CC(C)(C)OC(=O)N[C@H]1CCCN[C@H]1COC1CC=C(c2c(F)cccc2OCC(=O)O)CC1, 13-membered ring, HATU/DIEA, MeCN, 2.1 mM, 2.0 h): 71%
CC(C)(C)OC(=O)N[C@H]1CCCN2C(=O)COc3nccnc3C3CCC(CC3)OC[C@@H]12 |  |  |  |  |  | ring closure, isolated yield ([1]; from CC(C)(C)OC(=O)N[C@H]1CCCN[C@H]1COC1CCC(c2nccnc2OCC(=O)O)CC1, 13-membered ring, HATU/DIEA, MeCN, 2.16 mM, 1.0 h): 42.1%
CC(C)(C)OC(=O)N[C@H]1CCCN2C(=O)COc3nnccc3C3CCC(CC3)OC[C@@H]12 |  |  |  |  |  | ring closure, isolated yield ([1]; from CC(C)(C)OC(=O)N[C@H]1CCCN[C@H]1COC1CCC(c2ccnnc2OCC(=O)O)CC1, 13-membered ring, HATU/DIEA, MeCN, 0.94 mM, 25.0 °C, 2.0 h): 76%
COc1ccc(CNC2CCN3C(=O)C(F)(F)Oc4c(F)cc(F)cc4C4CCC(CC4)OCC23)cc1 (stereo not drawn) |  |  |  |  |  | ring closure, isolated yield ([1]; from COc1ccc(CNC2CCNC2COC2CCC(c3cc(F)cc(F)c3OC(F)(F)C(=O)O)CC2)cc1, 13-membered ring, HATU/diisopropylamine, DCM/MeCN 1:1, 18.5 mM, 3.0 h): 39.3%
CS(=O)(=O)N[C@H]1CCCN2C(=O)COc3ccccc3C3CCC(CC3)OCC12 (stereo partly drawn) [Compound 2] | 0.89 ×10⁻⁶ cm/s | 39 | 13 µL/min/1e6 cells | 0.67 | 190% | 
CS(=O)(=O)N[C@H]1CCN2C(=O)COc3ccccc3C3CCC(CC3)OCC12 (stereo partly drawn) [Compound 7] | 14 ×10⁻⁶ cm/s | 2.2 | 24 µL/min/1e6 cells | 0.78 | 165% | 
CS(=O)(=O)N[C@H]1CCCN2C(=O)COc3c(F)cc(F)cc3C3CCC(CC3)OCC12 (stereo partly drawn) [Compound 12] | 2.3 ×10⁻⁶ cm/s | 6.2 | 13 µL/min/1e6 cells | 0.66 | 236% | 
CS(=O)(=O)N[C@H]1CCCN2C(=O)COc3ncccc3C3CCC(CC3)OCC12 (stereo partly drawn) [Compound 46] | 0.31 ×10⁻⁶ cm/s | 58 | 6.9 µL/min/1e6 cells | 0.51 | 157% | 
CS(=O)(=O)N[C@H]1CCCN2C(=O)COc3ccc(Cl)cc3C3CCC(CC3)OCC12 (stereo partly drawn) [Compound 51] | 0.59 ×10⁻⁶ cm/s | 21 | 4.6 µL/min/1e6 cells | 0.41 | 166% | 
[2H]C1([2H])COc2ccccc2C2CCC(CC2)OCC2[C@@H](NS(C)(=O)=O)CCCN21 (stereo partly drawn) [Compound 60] | 8.8 ×10⁻⁶ cm/s | 1.4 | 54 µL/min/1e6 cells | 0.89 |  | EC50 [3]: 100 to 1000 nM
C[C@H]1COc2ccccc2C2CCC(CC2)OCC2[C@@H](NS(C)(=O)=O)CCCN21 (stereo partly drawn) [Compound 62] | 6.8 ×10⁻⁶ cm/s | 2.2 | 18 µL/min/1e6 cells | 0.89 |  | EC50 [3]: > 1000 nM
C[C@@H]1COc2ccccc2C2CCC(CC2)OCC2[C@@H](NS(C)(=O)=O)CCCN21 (stereo partly drawn) [Compound 63] | 9.1 ×10⁻⁶ cm/s | 0.75 | 40 µL/min/1e6 cells | 0.86 |  | EC50 [3]: > 1000 nM

— patent US12054495B2, “Substituted macrocyclic compounds and related methods of treatment” (Alkermes, Inc., priority 2019, dated 2024)
